What was measured:
[1] = Pharmacokinetic study in rat plasma after oral administration of QJYQ (UHPLC-sMRM); format: in vivo, Sprague-Dawley rats
Description: Exion LC AD tandem Blueline 3500 triple quadrupole mass spectrometer (AB SCIEX, Framingham, MA, United States) was used to thirty-three compounds in rat plasma. […] The whole detailed parameters of sMRM were obtained in Supplementary Table S1.
Rat plasma (100 μL) was mixed with 10% formic acid (10 μL) and vortexed for 1 min at room temperature. ISs (10 μL) and methanol/acetonitrile (1/1, v/v) (400 μL) were added and vortexed for 5 min, then centrifuged for 10 min at 14,000 rpm and 4°C. The transported supernatant was condensed to dryness under the flow of nitrogen gas. The dried residue was reconstituted with 70% methanol (100 μL) by vortex-mixing for 5 min and centrifuging at 14,000 rpm for 10 min. Last, 2 μL of the solution were injected into the UHPLC-sMRM system.
The pharmacokinetic study was approved by the Animal Ethics Committee of Tianjin University of Traditional Chinese Medicine (TCM-LAEC2021228). Ten male Sprague-Dawley rats (weight 220–240 g) was kept at the animal center of Tianjin University of Traditional Chinese Medicine (Tianjin, China). […] The sample was transferred right away following a 10 min period of centrifugation at 7000 rpm and 4°C. All plasma samples were frozen and stored at −80°C.
All the pharmacokinetic parameters were calculated using the DAS 1.0 software (Drug and Statistics 1.0, Medical College of Wannan, China). Pharmacokinetic parameters include the maximum drug concentration in plasma (Cmax), the time to achieve maximum drug concentration (Tmax), the area under the plasma concentration-time curve (AUC), elimination half-life (T1/2), and mean residence time (MRT). The pharmacokinetic parameters were computed using the non-compartmental model. All data are expressed as mean ± standard deviation (SD). GraphPad Prism 8.0 (GraphPad Software Inc., La Jolla, CA, United States) software was used to draw the drug-time curve.

[2] = Stability of the working solution (4°C for 1 month); format: physicochemical
Description: The stability of analytes in plasma was evaluated by analyzing 4 QC samples (n = 6). The stability was included auto-sampler stability (keeping the sample in auto-sampler for 24 h), three times of freeze-thaw cycles stability (freezing cycle at −80°C, thawing cycle at room temperature), room temperature stability (storing samples at room temperature for 24 h), long-term stability (storing samples at −80°C for 1 month). […] Accompanying curve was established when testing the sample, calculate and compare the ratio of the actual measured concentration to the theoretical concentration, expressed in accuracy and RSD.

[3] = Stability of analytes in rat plasma (auto-sampler, freeze-thaw, room temperature, long-term); conditions: for Autosampler for 24 h Accuracy (%): autosampler 24 h; for Room temperature for 24 h Accuracy (%): room temperature 24 h; for Freeze thaw cycles Accuracy (%): three freeze-thaw cycles; for −80°C for 1month Accuracy (%): −80°C 1 month
[4] = rat plasma, oral QJYQ 3.15 g/kg, n = 8, mean ± SD

Compound	AUC(0-t) [1, 4] [ng·h/mL]	AUC(0-∞) [1, 4] [ng·h/mL]	Working solution Accuracy (%) ([2]; 12.5 ng/mL)	Working solution Accuracy (%) ([2]; 50 ng/mL)	Working solution Accuracy (%) ([2]; 100 ng/mL)	Working solution Accuracy (%) ([2]; 500 ng/mL)	Autosampler for 24 h Accuracy (%) ([3]; 12.5 ng/mL)	Room temperature for 24 h Accuracy (%) ([3]; 12.5 ng/mL)	Freeze thaw cycles Accuracy (%) ([3]; 12.5 ng/mL)	−80°C for 1month Accuracy (%) ([3]; 12.5 ng/mL)	Autosampler for 24 h Accuracy (%) ([3]; 50 ng/mL)	Room temperature for 24 h Accuracy (%) ([3]; 50 ng/mL)	Autosampler for 24 h Accuracy (%) ([3]; 100 ng/mL)	Room temperature for 24 h Accuracy (%) ([3]; 100 ng/mL)	Freeze thaw cycles Accuracy (%) ([3]; 100 ng/mL)	−80°C for 1month Accuracy (%) ([3]; 100 ng/mL)	Autosampler for 24 h Accuracy (%) ([3]; 500 ng/mL)	Room temperature for 24 h Accuracy (%) ([3]; 500 ng/mL)	Freeze thaw cycles Accuracy (%) ([3]; 500 ng/mL)	−80°C for 1month Accuracy (%) ([3]; 500 ng/mL)	other results
COc1ccc([C@@H]2CC(=O)c3c(O)cc(O[C@@H]4O[C@H](CO[C@@H]5O[C@@H](C)[C@H](O)[C@@H](O)[C@H]5O)[C@@H](O)[C@H](O)[C@H]4O)cc3O2)cc1O [hesperidin]	1058.05 ± 267.32	1058.06 ± 267.32	81.7	109.0	102.0	91.0	82.1	84.1	94.3	81.8	100.0	93.7	96.0	92.3	95.7	93.1	87.8	92.3	89.1	93.6	Cmax [1, 4]: 604.36 ± 145.25 ng/mL; MRT (0-∞) [1, 4]: 4.52 ± 0.54 h; MRT(0-t) [1, 4]: 4.52 ± 0.54 h; T1/2 [1, 4]: 1.94 ± 0.03 h; Freeze thaw cycles Accuracy (%) ([3]; 50 ng/mL): 85.4%; −80°C for 1month Accuracy (%) ([3]; 50 ng/mL): 85.8%
COC(=O)C1=CO[C@@H](O[C@@H]2O[C@H](CO)[C@@H](O)[C@H](O)[C@H]2O)[C@H]2[C@@H]1C(=O)C[C@@H]2C [verbenalin]			83.3	89.5	86.2	96.4	84.9	104.0	93.8	89.1	92.5	88.9	89.7	91.2	87.8	95.7	88.3	104.0	88.5	104.0	AUC(0-t) ([1]; rat, in vivo, po, 3.15 g/kg): 618.13 ± 161.10 ng·h/mL; AUC(0-∞) ([1]; rat, in vivo, po, 3.15 g/kg): 669.34 ± 164.70 ng·h/mL; Cmax ([1]; rat, in vivo, po, 3.15 g/kg): 135.83 ± 52.28 ng/mL; MRT (0-∞) ([1]; rat, in vivo, po, 3.15 g/kg): 7.95 ± 4.85 h; MRT(0-t) ([1]; rat, in vivo, po, 3.15 g/kg): 4.85 ± 0.77 h; T1/2 ([1]; rat, in vivo, po, 3.15 g/kg): 8.37 ± 2.80 h; Tmax ([1]; rat, in vivo, po, 3.15 g/kg): 1.37 ± 0.80 h
O=C(O)[C@H]1O[C@@H](Oc2cc(O)c3c(=O)cc(-c4ccc(O)cc4)oc3c2)[C@H](O)[C@@H](O)[C@@H]1O [apigenin-7-O-glucuronide]			112.0		88.5	93.2	93.2	92.2	85.6	86.0			94.1	90.4	86.4	85.0	85.5	104.0	88.3	108.0	AUC(0-t) ([1]; rat, in vivo, po, 3.15 g/kg): 14603.11 ± 7523.95 ng·h/mL; AUC(0-∞) ([1]; rat, in vivo, po, 3.15 g/kg): 15028.42 ± 7667.50 ng·h/mL; Cmax ([1]; rat, in vivo, po, 3.15 g/kg): 167.50 ± 108.49 ng/mL; MRT ([1]; rat, in vivo, po, 3.15 g/kg): greater than 8 h; MRT (0-∞) ([1]; rat, in vivo, po, 3.15 g/kg): 8.62 ± 1.65 h; MRT(0-t) ([1]; rat, in vivo, po, 3.15 g/kg): 8.39 ± 1.62 h; T1/2 ([1]; rat, in vivo, po, 3.15 g/kg): 4.17 ± 1.51 h; Tmax ([1]; rat, in vivo, po, 3.15 g/kg): 4.65 ± 2.79 h; Working solution Accuracy (%) ([2]; 1.56 ng/mL): 83.6%; Autosampler for 24 h Accuracy (%) ([3]; 1.56 ng/mL): 103.0%; Room temperature for 24 h Accuracy (%) ([3]; 1.56 ng/mL): 114.0%; Freeze thaw cycles Accuracy (%) ([3]; 1.56 ng/mL): 109.0%; −80°C for 1month Accuracy (%) ([3]; 1.56 ng/mL): 104.0%
COc1cc(/C=C/C(=O)O)ccc1O [ferulic acid]	173.23 ± 5.66	176.72 ± 28.57	87.7	96.8	88.3	96.7	84.5	104.0	96.0	115.0	86.9	96.8	91.5	86.7	115.0	95.9	93.6			107.0	MRT ([1]; rat plasma, oral QJYQ 3.15 g/kg, MRT type not specified): greater than 8 h; Cmax [1, 4]: 51.71 ± 10.68 ng/mL; MRT (0-∞) [1, 4]: 8.43 ± 0.53 h; MRT(0-t) [1, 4]: 8.40 ± 0.20 h; T1/2 [1, 4]: 2.12 ± 0.07 h; Freeze thaw cycles Accuracy (%) ([3]; 50 ng/mL): 98.3%; −80°C for 1month Accuracy (%) ([3]; 50 ng/mL): 90.9%

Source: paper PMC10133546, “Simultaneous determination of multiple components in rat plasma by UHPLC-sMRM for pharmacokinetic studies after oral administration of Qingjin Yiqi Granules” (Frontiers in Pharmacology, 2023)
